Assay results: patent US20120142623A1, “Compositions And Methods For Predicting Inhibitors Of Protein Targets” (priority 2006, published 2012)
Read-outs that look alike come from different tables or passages of the source.

What was measured:
Reverse transcriptase = Reverse transcriptase (Human immunodeficiency virus type 1 group M subtype B, UniProt P04585)
Protease = Protease (Human immunodeficiency virus type 1 group M subtype B, UniProt P04585); details: HIV-1 target Protease; read-out: Inhibitory effect (uM), IC50, Protease; cited from earlier work
[1] = test system: plasmepsin enzyme target from the malarial parasite Plasmodium malariae; details: complexes solved by x-ray diffraction (1msm, 2anl); cited from earlier work
HIV-1 = details: HIV-1, target Unknown, cited from earlier work
Vpr = Vpr (Human immunodeficiency virus type 1 group M subtype B, UniProt P12520); details: read-out: Inhibitory effect (uM), EC50, Vpr; HIV-1 target Vpr; cited from earlier work
Vpr, sequence (P12520 whole entry): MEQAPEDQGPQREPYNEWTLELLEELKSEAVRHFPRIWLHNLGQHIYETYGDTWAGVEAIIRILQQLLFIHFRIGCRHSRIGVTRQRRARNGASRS

gp41 = details: HIV-1 target gp41; read-out: Inhibitory effect (uM), IC50, gp41; cited from earlier work
HSV2 protease = target: T1, HSV2 protease (Human herpesvirus 2, UniProt P89449); assay: Surface Plasmon Resonance (SPR), dissociation constant for HSV protease; type: binding, herpes simplex virus (HSV2)
T1 construct: HSV2 protease Kd (uM)
T1 sequence (P89449 1-247): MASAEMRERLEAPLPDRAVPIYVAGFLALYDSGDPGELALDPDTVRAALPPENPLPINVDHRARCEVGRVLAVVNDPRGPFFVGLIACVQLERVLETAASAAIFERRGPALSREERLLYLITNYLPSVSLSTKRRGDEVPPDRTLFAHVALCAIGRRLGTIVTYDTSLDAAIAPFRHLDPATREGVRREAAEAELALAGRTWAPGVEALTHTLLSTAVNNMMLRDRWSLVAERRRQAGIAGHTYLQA
Description: (§1) The first experimental verification of our computational predictions were with TMPyP4, the top ranking inhibitor predicted to bind to all known herpesvirus proteases (see FIG. 3). This is also the inhibitor that we have characterized most computationally and experimentally, so we focus primarily on this inhibitor. […] Traditional approaches to design an inhibitor against this molecule is likely to fail since it has an extremely shallow active site pocket. However, protease dimerisation is essential for protein function and our top ranking inhibitor not only fit around the active site (covering it) but also intercolated itself in the dimer interface. Our predicted mode of action was therefore two fold: covering the surface of the active site, and inhibition of dimerisation in a reversible manner (i.e., as dimers formed, our inhibitor would bind which would disrupt the dimer, resulting in the inhibitor binding weakly and likely released, which would lead to reformation of the dimer, and so on). FIG. 3 illustrates this mode of action. […] TMPyP4 is the only known compound that is capable of inhibiting all three classes of herpesviruses.
(§2) Four inhibitors were evaluated; our top ranking one (TMPyP4) clearly binds to all three proteases as predicted. […] A third inhibitor, GW8510, predicted to bind fails (i.e., a misprediction). […]

[2] = test system: chloroquine-sensitive strain 3D7 of P. falciparum; assay: P. falciparum growth inhibition in culture, strain 3D7; type: cell-based, Plasmodium falciparum; details: for EC50: Plasmodium falciparum, 3D7
[3] = test system: chloroquine-resistant strain K1 of P. falciparum; assay: P. falciparum growth inhibition in culture, strain K1; type: cell-based, Plasmodium falciparum; details: Plasmodium falciparum, K1
HSV protease = assay: Surface Plasmon Resonance, HSV protease; type: binding; details: SPR, FIG. 4
Method: (§3) Four inhibitors were evaluated; our top ranking one (TMPyP4) clearly binds to all three proteases as predicted. […] A third inhibitor, GW8510, predicted to bind fails (i.e., a misprediction). […] Our inhibitor prediction is completely consistent with the observed experimental data which is verified further by cell culture studies in FIG. 4 and compared to existing antiherpes drugs.

HSV-1 strain F = assay: HSV-1 infection of Vero cells, virus titer; type: cell-based
CMV = CMV infection of HFF cells, virus titer; type: cell-based; details: FIG. 5
KSHV = KSHV inhibition, different assay, fold reduction; type: cell-based; details: FIG. 5
[4] = test system: herpesvirus lytic phase viral growth; assay: Herpesvirus lytic phase viral growth in vitro; type: cell-based; details: dose-dependent, starting at micromolar concentrations
CMV protease [5] = target: T2, CMV protease (Human cytomegalovirus, UniProt P16753); assay: Surface Plasmon Resonance (SPR), dissociation constant for CMV protease; type: binding; design: CMV protease Kd (uM)
T2 sequence (P16753 1-256): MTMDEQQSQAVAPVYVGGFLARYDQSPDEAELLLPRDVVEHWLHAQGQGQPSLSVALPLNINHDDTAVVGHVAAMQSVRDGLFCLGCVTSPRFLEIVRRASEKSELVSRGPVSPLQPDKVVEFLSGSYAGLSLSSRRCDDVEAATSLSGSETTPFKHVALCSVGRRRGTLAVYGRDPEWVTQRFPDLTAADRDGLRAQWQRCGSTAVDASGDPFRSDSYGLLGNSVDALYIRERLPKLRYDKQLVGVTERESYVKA
Description: as §1, §2

KSHV protease [6] = target: T3, KSHV protease (Human herpesvirus 8 type P, UniProt Q2HRB6); assay: Surface Plasmon Resonance (SPR), dissociation constant for KSHV protease; type: binding, Kaposi's sarcoma virus (KSHV); design: KSHV protease Kd (uM)
T3 sequence (Q2HRB6 1-230): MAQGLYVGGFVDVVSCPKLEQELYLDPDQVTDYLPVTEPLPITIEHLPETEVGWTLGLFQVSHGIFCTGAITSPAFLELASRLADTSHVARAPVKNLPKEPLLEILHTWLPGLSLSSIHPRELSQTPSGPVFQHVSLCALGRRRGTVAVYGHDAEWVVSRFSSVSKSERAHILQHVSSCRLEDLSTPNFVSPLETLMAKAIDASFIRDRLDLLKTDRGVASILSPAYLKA
Description: as §1, §2

CMV protease [7] = target: T2, CMV protease; assay: Surface Plasmon Resonance, CMV protease; type: binding; design: herpes simplex virus (HSV) proteases (including HSV2, VZV, EBV, CMV, and KSHV); details: SPR, FIG. 4
Method: as §3

KSHV protease [8] = target: T3, KSHV protease; assay: Surface Plasmon Resonance, KSHV protease; type: binding; design: herpes simplex virus (HSV) proteases (including HSV2, VZV, EBV, CMV, and KSHV); details: SPR, FIG. 4
Method: as §3

Tat = Tat (Human immunodeficiency virus type 1 group M subtype B, UniProt P04608)
Tat, sequence (P04608 whole entry): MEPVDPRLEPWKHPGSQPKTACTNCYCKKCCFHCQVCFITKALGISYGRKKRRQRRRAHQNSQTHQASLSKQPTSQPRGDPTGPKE

Integrase = Integrase (Human immunodeficiency virus type 1 group M subtype B, UniProt P04585)
gp120 = target: T4, gp120 (Human immunodeficiency virus type 1 group M subtype B, UniProt P03375); details: read-out: Inhibitory effect (uM), ED50, gp120; HIV-1 target gp120; cited from earlier work
T4 construct: V3 region of HIV-1 envelope glycoprotein gp120 to galactosylceramide

For `CN(C)c1ccc(O)c2c1C[C@H]1C[C@H]3[C@H](N(C)C)C(O)=C(C(N)=O)C(=O)[C@@]3(O)C(O)=C1C2=O` [Minocycline], the IC50 (Reverse transcriptase; HIV-1 target Reverse transcriptase; read-out: Inhibitory effect (uM), IC50, Reverse transcriptase; cited from earlier work) is listed as 1200 µM.
For `Cc1ccccc1CNC(=O)[C@H]1N(C(=O)[C@@H](O)[C@H](Cc2ccccc2)NC(=O)c2cccc(O)c2C)CSC1(C)C` [KNI-764], the IC50 (Protease) is listed as over 0.05 µM and the “inhibition of HIV-1 protease and plasmepsin” value [1] is listed as “inhibits both HIV-1 protease and the plasmepsin enzyme target”.
For `CC(C)S(=O)(=O)n1c(N)nc2ccc(/C(=N/O)c3ccccc3)cc21` [Enviroxime], the EC50 (HIV-1; read-out: Inhibitory effect (uM), EC50, target Unknown) is given as over 36.5 µM.
For `CO[C@@H]1[C@H](OC(=O)/C=C/C=C/C=C/C=C/C(=O)O)CC[C@]2(CO2)[C@H]1[C@@]1(C)O[C@@H]1CC=C(C)C` [Fumagillin], the EC50 (Vpr) is listed as 0.015 µM and the EC50 (HIV-1; printed EC, read-out: Inhibitory effect (uM), EC, target Unknown) is listed as over 0.2 µM.
For Amphotericin B, the IC50 (gp41) is listed as over 10 µM.
Work on `C[n+]1ccc(-c2c3nc(c(-c4cc[n+](C)cc4)c4ccc([nH]4)c(-c4cc[n+](C)cc4)c4nc(c(-c5cc[n+](C)cc5)c5ccc2[nH]5)C=C4)C=C3)cc1` [TMPyP4, meso-5,10,15,20-Tetrakis-(N-methyl-4-pyridyl)porphine tetratosylate] yielded a Kd (HSV2 protease) of 40 µM, an EC50 ([2]; Table 3 section A, mean of at least two measurements, read-out: ED50 in 3D7) of 1 µM and an EC50 ([2]; Table 5, read-out: ED50 (μM) in 3D7) of 1 µM. For the same compound, the “result of the 16 tested inhibitors in words (binding)” value ([2]; summary of Table 5) was “moderate binding”, the EC50 ([3]; Table 3 section A, mean of at least two measurements, read-out: ED50 in K1) was 1 µM and the EC50 ([3]; Table 5, read-out: ED50 (μM) in K1) was 1 µM. The “disassociation constant (Kd), HSV protease” value (HSV protease) was “micromolar range”, the “effect used together with acylovir” value (HSV-1 strain F; FIG. 5 bottom left panel, virus not named) was “almost completely eliminates all virus when used together” and the “effectiveness after passage for several cycles with both acylovir and TMPyP4” value (HSV-1 strain F; FIG. 5 bottom right panel, virus not named) was “still continues to be effective”. For the same compound, the “inhibition of HSV, virus titer” value (HSV-1 strain F; Vero cells, HSV-1 strain F, FIG. 5) was “comparably or better than existing antiherpes drugs”, the “inhibition of CMV, virus titer” value (CMV) was “comparably or better than existing antiherpes drugs” and the “inhibition of KSHV” value (KSHV) was “inhibited KSHV”. For the same compound, the “inhibition of lytic phase viral growth” value [4] was 90%, the Kd (CMV protease [5]) was 36 µM and the Kd (KSHV protease [6]) was 32.8 µM. For the same compound, the “disassociation constant (Kd), CMV protease” value (CMV protease [7]) was “micromolar range” and the “disassociation constant (Kd), KSHV protease” value (KSHV protease [8]) was “micromolar range”.
In the case of `CCC(C)c1c(O[C@H]2C[C@@H](O[C@H]3C[C@@H](O)[C@H](O)[C@@H](C)O3)[C@H](O)[C@@H](C)O2)cc2cc3c(c(O)c2c1O)C(=O)C(O[C@H]1C[C@@H](O[C@H]2C[C@@H](O[C@H]4C[C@@H](O[C@H]5C[C@@H](O)[C@H](O)[C@@H](C)O5)[C@H](O)[C@@H](C)O4)[C@@H](OC(C)=O)[C@@H](C)O2)[C@H](O)[C@@H](C)O1)C(C(OC)C(=O)C(O)C(C)O)C3` (stereo partly drawn) [Durhamycin A], the IC50 (Tat; HIV-1 target Tat; read-out: Inhibitory effect (uM), IC50, Tat; cited from earlier work) is listed as 0.0048 µM.
In the case of `CCN(CC)CCCC(C)Nc1ccnc2cc(Cl)ccc12` (stereo not drawn) [Chloroquine], the IC50 (Integrase; read-out: Inhibitory effect (uM), IC50, Integrase; HIV-1 target Integrase; cited from earlier work) is given as 5.14 µM, the IC50 (Reverse transcriptase; read-out: Inhibitory effect (uM), IC50, Reverse transcriptase; HIV-1 target Reverse transcriptase; cited from earlier work) is given as over 300 µM and the IC50 (Tat; read-out: Inhibitory effect (uM), IC50, Tat; HIV-1 target Tat; cited from earlier work) is given as under 50 µM.
In the case of `Cc1ccc(C(=O)Nc2ccc(S(=O)(=O)O)c3cc(S(=O)(=O)O)cc(S(=O)(=O)O)c23)cc1NC(=O)c1cccc(NC(=O)Nc2cccc(C(=O)Nc3cc(C(=O)Nc4ccc(S(=O)(=O)O)c5cc(S(=O)(=O)O)cc(S(=O)(=O)O)c45)ccc3C)c2)c1` [Suramin], the IC50 (Integrase; HIV-1 target Integrase; read-out: Inhibitory effect (uM), IC50, Integrase; cited from earlier work) is given as 2.4 µM and the EC50 (gp120) is given as 7.7 µM.
